In the kinase profiling compilation of Christmann-Franck et al. (2016):

Assays:
Experiment in all cases: KINOMEscan competition binding
Conditions in all cases: compound 1.0 µM
NUAK1 (human) = NUAK1 (human) (UniProt O60285)
CAMK2D (human) = CAMK2D (human) (UniProt Q13557)
SGK110 (human) = SGK110 (human) (UniProt P0C264)
PRKCE (human) = PRKCE (human) (UniProt Q02156)
PRKCD (human) = PRKCD (human) (UniProt Q05655)
ADCK3 (human) = ADCK3 (human) (UniProt Q8NI60)
EPHA5 (human) = EPHA5 (human) (UniProt P54756)
Sequence of EPHA5 (human) (P54756 whole entry, looked up): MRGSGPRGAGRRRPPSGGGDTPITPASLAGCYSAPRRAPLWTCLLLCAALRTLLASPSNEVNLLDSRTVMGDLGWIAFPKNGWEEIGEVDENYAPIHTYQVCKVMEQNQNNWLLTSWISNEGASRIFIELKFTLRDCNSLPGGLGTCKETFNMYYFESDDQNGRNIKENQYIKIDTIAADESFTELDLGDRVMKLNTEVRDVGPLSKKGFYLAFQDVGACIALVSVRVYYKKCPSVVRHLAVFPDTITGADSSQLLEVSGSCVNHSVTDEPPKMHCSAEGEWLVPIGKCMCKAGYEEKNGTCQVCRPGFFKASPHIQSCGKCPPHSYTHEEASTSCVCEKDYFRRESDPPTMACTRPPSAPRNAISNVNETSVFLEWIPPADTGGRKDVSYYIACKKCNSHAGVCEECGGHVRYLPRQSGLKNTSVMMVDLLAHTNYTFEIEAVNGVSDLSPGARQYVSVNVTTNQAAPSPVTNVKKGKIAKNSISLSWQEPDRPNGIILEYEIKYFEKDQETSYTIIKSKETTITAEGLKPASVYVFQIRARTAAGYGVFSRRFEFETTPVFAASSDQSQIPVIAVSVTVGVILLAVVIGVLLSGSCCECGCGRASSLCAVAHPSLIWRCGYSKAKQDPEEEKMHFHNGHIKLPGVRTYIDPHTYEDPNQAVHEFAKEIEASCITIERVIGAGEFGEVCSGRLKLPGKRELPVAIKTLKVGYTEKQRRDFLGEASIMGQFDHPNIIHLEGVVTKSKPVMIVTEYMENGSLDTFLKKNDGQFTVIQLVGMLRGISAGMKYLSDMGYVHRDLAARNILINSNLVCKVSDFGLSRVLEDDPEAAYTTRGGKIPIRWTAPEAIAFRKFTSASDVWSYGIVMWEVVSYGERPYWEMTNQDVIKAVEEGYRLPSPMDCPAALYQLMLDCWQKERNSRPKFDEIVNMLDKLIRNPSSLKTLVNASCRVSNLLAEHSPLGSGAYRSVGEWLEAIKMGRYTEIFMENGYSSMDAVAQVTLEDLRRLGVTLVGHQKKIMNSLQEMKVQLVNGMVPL

RPS6KB1 (human) = RPS6KB1 (human) (UniProt P23443)
STK10 (human) = STK10 (human) (UniProt O94804)
IRAK4 (human) = IRAK4 (human) (UniProt Q9NWZ3)
STK33 (human) = STK33 (human) (UniProt Q9BYT3)
[1] = molecular target: JAK1 JH2 pseudokinase (human) (UniProt P23458)
STK39 (human) = STK39 (human) (UniProt Q9UEW8)
CDC42BPG (human) = CDC42BPG (human) (UniProt Q6DT37)
IGF1R (human) = IGF1R (human) (UniProt P08069)
PIM1 (human) = PIM1 (human) (UniProt P11309)
HIPK3 (human) = HIPK3 (human) (UniProt Q9H422)
Sequence of HIPK3 (human) (Q9H422 whole entry, looked up): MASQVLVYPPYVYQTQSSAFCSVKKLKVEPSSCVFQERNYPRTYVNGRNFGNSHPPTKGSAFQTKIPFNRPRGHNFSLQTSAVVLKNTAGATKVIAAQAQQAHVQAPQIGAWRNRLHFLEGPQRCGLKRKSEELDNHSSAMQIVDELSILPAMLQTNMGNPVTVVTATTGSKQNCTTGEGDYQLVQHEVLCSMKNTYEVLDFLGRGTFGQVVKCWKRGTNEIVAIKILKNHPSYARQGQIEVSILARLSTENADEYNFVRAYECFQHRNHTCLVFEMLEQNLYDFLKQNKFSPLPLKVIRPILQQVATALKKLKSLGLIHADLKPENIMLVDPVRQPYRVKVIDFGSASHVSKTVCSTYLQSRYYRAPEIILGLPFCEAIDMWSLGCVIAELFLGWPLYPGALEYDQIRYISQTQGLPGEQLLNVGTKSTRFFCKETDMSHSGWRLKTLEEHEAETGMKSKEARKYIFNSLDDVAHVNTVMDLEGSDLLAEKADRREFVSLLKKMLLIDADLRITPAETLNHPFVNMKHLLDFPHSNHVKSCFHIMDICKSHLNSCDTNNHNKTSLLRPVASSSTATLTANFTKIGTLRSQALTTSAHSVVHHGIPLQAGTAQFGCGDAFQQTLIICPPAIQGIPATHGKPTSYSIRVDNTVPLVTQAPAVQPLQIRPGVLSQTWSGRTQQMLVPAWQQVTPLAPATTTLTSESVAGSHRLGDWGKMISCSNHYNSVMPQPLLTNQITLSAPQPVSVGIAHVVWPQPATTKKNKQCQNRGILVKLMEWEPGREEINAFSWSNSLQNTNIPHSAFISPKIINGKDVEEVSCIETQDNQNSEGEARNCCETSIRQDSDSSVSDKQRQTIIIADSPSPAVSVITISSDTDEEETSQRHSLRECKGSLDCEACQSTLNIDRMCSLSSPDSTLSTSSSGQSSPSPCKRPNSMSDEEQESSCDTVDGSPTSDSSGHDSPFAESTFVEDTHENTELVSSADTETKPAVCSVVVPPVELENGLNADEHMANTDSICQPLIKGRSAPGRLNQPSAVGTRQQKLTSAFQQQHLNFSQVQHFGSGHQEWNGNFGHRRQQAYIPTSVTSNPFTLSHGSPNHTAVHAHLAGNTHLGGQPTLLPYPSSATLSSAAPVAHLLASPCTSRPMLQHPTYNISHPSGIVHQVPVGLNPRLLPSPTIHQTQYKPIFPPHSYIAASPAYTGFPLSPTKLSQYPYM

[2] = system: EGFR (human), P00533 [746-750 del]
Sequence of EGFR (human), P00533 [746-750 del] (P00533 whole entry, looked up, stated change not applied): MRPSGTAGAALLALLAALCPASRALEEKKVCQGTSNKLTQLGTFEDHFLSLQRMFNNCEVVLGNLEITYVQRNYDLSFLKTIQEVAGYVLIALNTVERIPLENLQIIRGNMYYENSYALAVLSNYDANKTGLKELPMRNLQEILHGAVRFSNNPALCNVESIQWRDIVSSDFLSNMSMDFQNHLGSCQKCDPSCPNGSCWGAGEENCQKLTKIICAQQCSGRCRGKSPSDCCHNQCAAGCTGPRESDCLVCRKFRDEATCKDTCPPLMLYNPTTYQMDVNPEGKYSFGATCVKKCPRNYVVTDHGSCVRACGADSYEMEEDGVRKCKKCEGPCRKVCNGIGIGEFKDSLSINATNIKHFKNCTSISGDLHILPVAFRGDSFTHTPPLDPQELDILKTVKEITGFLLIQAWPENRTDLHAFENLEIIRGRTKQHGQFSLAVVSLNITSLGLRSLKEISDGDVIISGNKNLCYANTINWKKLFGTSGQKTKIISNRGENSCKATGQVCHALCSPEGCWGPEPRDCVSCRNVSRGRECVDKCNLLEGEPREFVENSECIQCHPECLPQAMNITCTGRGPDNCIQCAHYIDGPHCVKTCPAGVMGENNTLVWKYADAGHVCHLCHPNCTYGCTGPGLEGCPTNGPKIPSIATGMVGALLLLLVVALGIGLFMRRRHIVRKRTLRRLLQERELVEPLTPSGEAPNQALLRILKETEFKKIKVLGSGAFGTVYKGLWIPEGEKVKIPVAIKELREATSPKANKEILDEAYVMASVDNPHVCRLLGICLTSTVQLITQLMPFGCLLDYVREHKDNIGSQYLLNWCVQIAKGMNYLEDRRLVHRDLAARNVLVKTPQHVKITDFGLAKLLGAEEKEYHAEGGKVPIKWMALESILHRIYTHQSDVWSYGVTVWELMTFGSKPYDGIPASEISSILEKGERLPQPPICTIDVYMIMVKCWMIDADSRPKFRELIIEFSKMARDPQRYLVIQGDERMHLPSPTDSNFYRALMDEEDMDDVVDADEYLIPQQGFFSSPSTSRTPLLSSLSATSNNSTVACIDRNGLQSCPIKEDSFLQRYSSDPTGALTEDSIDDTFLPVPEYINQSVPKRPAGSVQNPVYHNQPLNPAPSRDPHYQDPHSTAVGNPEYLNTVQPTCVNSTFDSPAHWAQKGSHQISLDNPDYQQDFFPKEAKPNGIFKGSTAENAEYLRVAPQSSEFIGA

[3] = system: KIT (human), P10721 [V559D/V654A]
MAPK7 (human) = MAPK7 (human) (UniProt Q13164)
LTK (human) = LTK (human) (UniProt P29376)
RET (human) = RET (human) (UniProt P07949)
NEK3 (human) = NEK3 (human) (UniProt P51956)
CLK2 (human) = CLK2 (human) (UniProt P49760)
LYN (human) = LYN (human) (UniProt P07948)
CDC2L2 (human) = CDC2L2 (human) (UniProt Q9UQ88)
FLT1 (human) = FLT1 (human) (UniProt P17948)
MAPK11 (human) = MAPK11 (human) (UniProt Q15759)
CDKL1 (human) = CDKL1 (human) (UniProt Q00532)
Sequence of CDKL1 (human) (Q00532 whole entry, looked up): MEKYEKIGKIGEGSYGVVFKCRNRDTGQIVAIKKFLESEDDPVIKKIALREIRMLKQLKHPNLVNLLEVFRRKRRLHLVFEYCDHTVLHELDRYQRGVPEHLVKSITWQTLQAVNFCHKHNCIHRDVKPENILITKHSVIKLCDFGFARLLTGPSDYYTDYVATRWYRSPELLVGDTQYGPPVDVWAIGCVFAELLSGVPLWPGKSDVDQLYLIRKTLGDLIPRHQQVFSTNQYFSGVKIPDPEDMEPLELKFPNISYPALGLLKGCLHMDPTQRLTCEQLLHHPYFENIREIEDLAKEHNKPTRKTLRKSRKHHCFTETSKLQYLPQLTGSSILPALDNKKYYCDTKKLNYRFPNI

STK25 (human) = STK25 (human) (UniProt O00506)
[4] = system: PIK3CA (human), P42336 [H1047L]
TAOK2 (human) = TAOK2 (human) (UniProt Q9UL54)
MAP2K4 (human) = MAP2K4 (human) (UniProt P45985)
SBK1 (human) = SBK1 (human) (UniProt Q52WX2)
Sequence of SBK1 (human) (Q52WX2 whole entry, looked up): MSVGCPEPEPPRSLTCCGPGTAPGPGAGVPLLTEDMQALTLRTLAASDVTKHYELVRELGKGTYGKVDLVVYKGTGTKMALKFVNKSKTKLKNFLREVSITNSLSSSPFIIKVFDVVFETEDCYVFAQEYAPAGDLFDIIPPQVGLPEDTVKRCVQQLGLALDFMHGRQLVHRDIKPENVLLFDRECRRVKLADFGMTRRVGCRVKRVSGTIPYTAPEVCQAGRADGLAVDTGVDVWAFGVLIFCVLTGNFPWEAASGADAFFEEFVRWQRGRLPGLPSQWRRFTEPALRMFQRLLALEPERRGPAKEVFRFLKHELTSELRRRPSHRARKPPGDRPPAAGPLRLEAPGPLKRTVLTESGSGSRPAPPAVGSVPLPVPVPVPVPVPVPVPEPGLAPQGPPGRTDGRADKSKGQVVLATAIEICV

MAPKAPK5 (human) = MAPKAPK5 (human) (UniProt Q8IW41)
[5] = system: KIT (human), P10721 [D816V]
TSSK1B (human) = TSSK1B (human) (UniProt Q9BXA7)
SRPK2 (human) = SRPK2 (human) (UniProt P78362)
EIF2AK2 (human) = EIF2AK2 (human) (UniProt P19525)
MYLK3 (human) = MYLK3 (human) (UniProt Q32MK0)
Sequence of MYLK3 (human) (Q32MK0 whole entry, looked up): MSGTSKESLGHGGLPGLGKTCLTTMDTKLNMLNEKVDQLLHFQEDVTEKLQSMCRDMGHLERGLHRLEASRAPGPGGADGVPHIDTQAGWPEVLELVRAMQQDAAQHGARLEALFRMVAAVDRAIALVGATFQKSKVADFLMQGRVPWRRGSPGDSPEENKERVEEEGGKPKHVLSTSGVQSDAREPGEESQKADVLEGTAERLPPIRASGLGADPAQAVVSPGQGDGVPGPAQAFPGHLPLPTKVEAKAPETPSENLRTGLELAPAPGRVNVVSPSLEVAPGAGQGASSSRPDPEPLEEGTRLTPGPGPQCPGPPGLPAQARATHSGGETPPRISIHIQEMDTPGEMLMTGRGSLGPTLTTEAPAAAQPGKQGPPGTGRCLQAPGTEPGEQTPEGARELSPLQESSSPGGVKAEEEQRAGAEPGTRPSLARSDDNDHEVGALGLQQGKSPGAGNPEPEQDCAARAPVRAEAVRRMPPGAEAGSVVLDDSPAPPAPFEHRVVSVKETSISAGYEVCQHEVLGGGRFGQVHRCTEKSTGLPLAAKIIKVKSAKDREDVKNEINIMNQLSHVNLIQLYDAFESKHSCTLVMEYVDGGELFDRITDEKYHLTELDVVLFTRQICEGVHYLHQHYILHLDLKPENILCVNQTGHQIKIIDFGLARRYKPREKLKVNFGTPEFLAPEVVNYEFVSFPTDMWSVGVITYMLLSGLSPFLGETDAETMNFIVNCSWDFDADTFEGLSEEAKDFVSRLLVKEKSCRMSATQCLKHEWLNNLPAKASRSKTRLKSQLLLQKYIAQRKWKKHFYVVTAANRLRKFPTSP

BMP2K (human) = BMP2K (human) (UniProt Q9NSY1)
RPS6KA1 KD2 (human) = RPS6KA1 KD2 (human) (UniProt Q15418)
FLT4 (human) = FLT4 (human) (UniProt P35916)

In the case of `COCCNCCCn1c(C(=O)CF)c(-c2ccc(C)cc2)c2c(N)ncnc21`, the kinase still bound, per cent of control (NUAK1 (human)) is reported as 98%, the kinase still bound, per cent of control (CAMK2D (human)) is reported as 82% and the kinase still bound, per cent of control (SGK110 (human)) is reported as 100%. The kinase still bound, per cent of control (PRKCE (human)) was 100%, the kinase still bound, per cent of control (PRKCD (human)) was 90% and the kinase still bound, per cent of control (ADCK3 (human)) was 100%. The kinase still bound, per cent of control (EPHA5 (human)) was 91%, the kinase still bound, per cent of control (RPS6KB1 (human)) was 100% and the kinase still bound, per cent of control (STK10 (human)) was 100%. For the same compound, the kinase still bound, per cent of control (IRAK4 (human)) was 100%, the kinase still bound, per cent of control (STK33 (human)) was 100% and the kinase still bound, per cent of control [1] was 100%. For the same compound, the kinase still bound, per cent of control (STK39 (human)) was 100%, the kinase still bound, per cent of control (CDC42BPG (human)) was 84% and the kinase still bound, per cent of control (IGF1R (human)) was 100%. It also gave a kinase still bound, per cent of control (PIM1 (human)) of 100%, a kinase still bound, per cent of control (HIPK3 (human)) of 100% and a kinase still bound, per cent of control [2] of 100%. For the same compound, the kinase still bound, per cent of control [3] was 94%, the kinase still bound, per cent of control (MAPK7 (human)) was 100% and the kinase still bound, per cent of control (LTK (human)) was 100%. For the same compound, the kinase still bound, per cent of control (RET (human)) was 88%, the kinase still bound, per cent of control (NEK3 (human)) was 70% and the kinase still bound, per cent of control (CLK2 (human)) was 100%. For the same compound, the kinase still bound, per cent of control (LYN (human)) was 97%, the kinase still bound, per cent of control (CDC2L2 (human)) was 100% and the kinase still bound, per cent of control (FLT1 (human)) was 96%. For the same compound, the kinase still bound, per cent of control (MAPK11 (human)) was 90%, the kinase still bound, per cent of control (CDKL1 (human)) was 100% and the kinase still bound, per cent of control (STK25 (human)) was 100%. It also gave a kinase still bound, per cent of control [4] of 100%, a kinase still bound, per cent of control (TAOK2 (human)) of 100% and a kinase still bound, per cent of control (MAP2K4 (human)) of 78%. It also gave a kinase still bound, per cent of control (SBK1 (human)) of 98%, a kinase still bound, per cent of control (MAPKAPK5 (human)) of 100% and a kinase still bound, per cent of control [5] of 96%. For the same compound, the kinase still bound, per cent of control (TSSK1B (human)) was 100%, the kinase still bound, per cent of control (SRPK2 (human)) was 100% and the kinase still bound, per cent of control (EIF2AK2 (human)) was 90%. For the same compound, the kinase still bound, per cent of control (MYLK3 (human)) was 96%, the kinase still bound, per cent of control (BMP2K (human)) was 94% and the kinase still bound, per cent of control (RPS6KA1 KD2 (human)) was 31%. It also gave a kinase still bound, per cent of control (FLT4 (human)) of 98%.
